Drawing on a melting point compilation (Tetko et al.; mined from patent text by program, amines drawn as free bases though some values may be those of a salt), this text covers melting point for 89 compounds.

`COc1cccc(CNc2nccc(-c3cc(N4CCN(CCCN5CCOCC5)CC4)c4cc(OC)ccc4c3)n2)c1` gave a melting point of 65 to 73 °C. In the case of `Cc1cccn2c(=O)cc(/C=C/c3ccccc3)nc12` it was 150 to 152 °C.

As for `O=C(Nc1ccc(Cl)c2c(Cl)ccnc12)c1c(Cl)cccc1Cl`, the melting point fell in the range of 243 to 247 °C.

As to `CCOC(=O)c1c(-c2ccccc2C)c2cc(Cl)ccc2n(C)c1=O`, the melting point was in the range of 113 to 114 °C.

Regarding `O=C1NC(=O)c2ccc(Br)cc2/C1=C/c1cc(Br)c(O)c(Br)c1`, the melting point was in the range of 167 to 168 °C.

On to `CC(C)(C)c1cc(Cc2cc(C(C)(C)C)cc(C(C)(C)C)c2O)c(O)c(-n2nc3ccccc3n2)c1`, for which the melting point turned out to be 208 °C.

With `CCN(CC)C(=O)C=Cc1cc([N+](=O)[O-])ccc1C`, the melting point turned out to be 61.9 °C. For the compound `[N-]=[N+]=NC[C@H]1O[C@H]([C@H](O)CO)[C@H](O)[C@@H]1O`, the melting point was 86 °C. With `ON=CN1CCCC1C1=Nc2ccc(Cl)cc2C(c2ccccc2F)=NC1` (centres undefined), the melting point fell in the range of 175 to 178 °C. In the case of `CC(C)(C)CC(C)(C)c1cc(Cc2cc(C(C)(C)C)cc(C(C)(C)C)c2O)c(O)c(-n2nc3ccccc3n2)c1` it was 137 °C. Consider `Fc1ccc2[nH]c(C3=Cc4ccccc4C3)cc2c1`, for which the melting point lay within 272 to 275 °C. Compound `CC1(CN)CCN(c2c(F)cc3c(=O)c(C(=O)O)cn(C4CC4)c3c2Cl)C1` (centres undefined) showed a melting point of 189 to 191 °C. Next, `CCOC(=O)N1CCN(c2c(F)cc([N+](=O)[O-])c(F)c2COC)CC1`: 85 to 86 °C; `CC(=O)c1c(-c2ccccc2Cl)nc2occn12`: 121 to 122 °C. In the case of `O=C1C(Br)=CC(Br)(Br)C=C1Br` it was 123 to 127 °C; in that of `CCCCOC(=O)C1C(C(C)=O)C(=O)N1C(Cc1ccc(OC)cc1)Cc1ccc(OC)cc1` (centres undefined), 92.5 to 94 °C; in that of `CNC(=O)N(C=O)c1cccc(C)c1`, 112 to 113 °C.

Turning to `O=C(CSc1ccccc1)c1ccccc1`, the melting point fell in the range of 51 to 52 °C. Next, `CCCC(=O)C(=O)[C@H](CC1CCCCC1)NC(=O)[C@H](Cc1cn(S(=O)(=O)c2ccc(C)cc2)cn1)NC(=O)OC(C)(OC)OC`: 60 to 67 °C; `Clc1ccc2nc(NCc3ccco3)nc(-c3ccccc3)c2c1`: 142 °C. `CC(=O)N1c2c(ccn3cc(C)nc23)C(=O)C(OC(=O)C(C)(C)C)C1c1ccccc1` (centres undefined): the melting point lay in the range of 168 to 169 °C.

Turning to `CN(c1cccc2c(F)c(C3=NCC(CC(N)=O)S3)[nH]c12)S(=O)(=O)c1cccs1` (centres undefined), the melting point fell in the range of 204 to 205 °C.

`CCn1nc(C#N)c(=O)c2ccccc21` displayed a melting point of 216 to 218 °C. In the case of `O=C(NCCO)c1csc(C(F)(F)F)n1` it was 100 to 101 °C; in that of `CCNc1nc(C)c(-c2ccnc(Nc3ccc4c(c3)OCO4)n2)s1`, 194 to 195 °C. In the case of `C=CCOc1ccc(C#N)cc1` it was 41.6 °C; in that of `COCCOC(=O)Nc1cccc(C)c1COc1cccn2c(C)c(C)nc12`, 107 to 108 °C; in that of `O=c1nc(NCc2ccccc2F)c(F)cn1-c1ccsc1`, 75 to 78 °C.

`OC1CSC(Oc2ccc(-n3ccnc3)cc2)C(O)C1O` (centres undefined): the melting point came to 180 °C. Next, `CCCCn1c(=O)c2c(ncn2CCCCC(C)=O)n(CCCC)c1=O`: 88 °C. Next, `CCOC(=O)c1cn(C(C)(C)CO[Si](C)(C)C(C)(C)C)c2cc(Br)ccc2c1=O`: 133 °C; `CCOC(=O)C1=C(COCc2nc(C(=O)OCC)cs2)NC(C)=C(C(=O)OC)C1c1ccccc1Cl` (centres undefined): 111 to 113 °C; `COCc1cn(-c2ccccc2)nc1OCc1ccc(OCc2nc(-c3ccco3)oc2C)c(OC)c1`: 121 to 122 °C.

`COC(=O)CCC(=NOCc1ccc(OCc2nc(-c3ccco3)oc2C)c(OC)c1)c1ccccc1` yielded a melting point of 67 to 69 °C. Next, `O=c1n(CCO)c2cc(Br)c(Br)c(Br)c2n1CCO`: 201 to 204 °C; `CCCCOCC(=O)NNC(=O)N1Cc2ccccc2Oc2ccc(Cl)cc21`: 93 to 97 °C; `CCc1cc(NC(=O)C(CSC(C)=O)Cc2ccccc2)cc(C(=O)O)c1` (centres undefined): 175 to 177 °C. In turn, `OC1CSC(Oc2cccc(-c3cccnc3)n2)C(O)C1O` (centres undefined) displayed a melting point of 179 °C. As for `CCOC(=O)c1cn2c3c(cc(C)cc3c1=O)C1CCCCC12` (centres undefined), the melting point lay within 107 to 109 °C. Consider `O=C(CC1CCCC(Cl)C1)Nc1ccccc1` (centres undefined), for which the melting point lay within 110 to 112 °C.

In the case of `Cc1nc(C(F)F)c(C(=O)Nc2ccccc2-c2ccc(Cl)cc2)s1`, the melting point turned out to be 144 °C. Take `Nc1ccc(C2Sc3ccccc3C=C2c2ccc3c(c2)NC(=O)CO3)cc1` (centres undefined): the melting point lay in the range of 186 to 189 °C. In the case of `Fc1ccc(Nc2ncnc3cnc(OC4CCOCC4)nc23)cc1Cl` it was 220 to 222 °C; in that of `Cc1nccn1N=Cc1ccccc1`, 122 to 124 °C. Next, `CC12CCC(CC1=C=C1C=CC(Nc3nc(Cl)nc(Cl)n3)=CC1)C2(C)C` (centres undefined): 238 °C; `O=C(O)c1ccc(CO[N+](=O)[O-])cc1`: 159 to 161 °C. Next, `CCCCCCCCCCCCSCCC(=O)OC(CSCCCCCCCCCCCC)CSCCCCCCCCCCCC`: 31 to 32 °C; `COc1cc2cc(Br)c(C)cc2c(C(C)C)c1OC`: 62 to 63 °C. Turning to `NC(=O)c1cccnc1Oc1cccc(Cl)c1`, the melting point is 225 to 228 °C. Next, `Cc1cc(-c2cc(=O)n(C)[nH]2)c(F)cc1Cl`: 155 to 156 °C; `CCCCCCCCCCCC/C=C/c1ccc2c(c1)OCO2`: 34 to 36 °C; `Cc1nn(-c2c(Cl)cc(C(F)(F)F)cc2Cl)nc1C(=O)O`: 185 to 186 °C. Next, `CCCc1c([C@@H]2C[C@H]2c2ccccc2)oc2ccc(C(=O)OC)cc2c1=O` (relative stereo): 171 to 173 °C; `N#Cc1ccc(-c2cc(N(Cc3ccc(O)cc3)n3cnnc3)ccc2C#N)cc1`: 221 to 223 °C. On to `COc1[nH]c(C)cc1C#N`, for which the melting point stood at 105 °C. In the case of `COc1cc(-c2ncnc(C(F)F)c2Cl)c(F)cc1Cl` it was 118 to 119 °C. In the case of `Cc1nc(NC(=O)c2cnn3c(C(F)(F)F)cc(-c4ccc(C(F)(F)F)cc4)nc23)sc1S(=O)(=O)N1CCC(O)C1` (racemic) it was 300 °C; in that of `Cc1noc(NS(=O)(=O)c2ccccc2-c2cccnc2)c1C`, 147 to 150 °C. The compound `N#Cc1ccc(NCCO)c([N+](=O)[O-])c1` registered a melting point of 132 to 134 °C.

Turning to `CC(=O)c1nc2ccc(OCC(F)(F)C(F)(F)C(F)(F)C(F)F)cc2cc1O`, the melting point lay within 69 to 71 °C. Consider `Cn1c(=O)[nH]c2nccnc2c1=O`, for which the melting point lay in the range of 342 to 343 °C. In the case of `CC(=N)NS(=O)(=O)C=Cc1ccccc1[N+](=O)[O-]` it was 175 to 178 °C; in that of `CON=C(C(=O)O)C1(CCl)OCCO1`, 80 to 81 °C.

`Cc1oc2c(NC(=O)c3c(Cl)ccc(Cl)c3C(=O)O)cccc2c1C` registered a melting point of 186 to 188 °C. As to `CCn1cc(C(=O)O)c(=O)c2cc(F)c(N3CCN(C)C(c4ccsc4)C3)cc21` (centres undefined), the melting point was 226 to 228 °C.

The compound `CCCC12CCC3C4CCCC=C4CCC3C1CCC2O` (centres undefined) gave a melting point of 115 to 119 °C. In the case of `CCCCCCCCCCCCCCOc1ccc(CN(Cc2ccccn2)S(C)(=O)=O)cc1` it was 62 to 63 °C; in that of `COc1ccc(NC(=O)c2ccc3c(c2)C(C)(C)C(=O)N3)cc1`, 169 to 171 °C.

In turn, `O=C(/C=C/[C@@H]1[C@H]2CC(=O)O[C@H]2C[C@H]1OC(=O)c1ccccc1)COc1cccc(Cl)c1` displayed a melting point of 101 to 102 °C. Next, `COc1ccc(NC(=O)C(F)(F)F)cc1C12CC3CC(CC(C3)C1)C2`: 166 to 167 °C; `CCCCCCCCCCCCCCCCNc1ccc(C2=NCCO2)cc1`: 123 to 125 °C. Next, `CCOC(=O)c1cn(-c2ccc3ncccc3c2)cn1`: 90 to 94 °C; `O=c1[nH]c(CCl)nc2cc3c(cc12)CCC3`: 270 to 272 °C; `CCOC(=O)COc1ccc(-c2nn(-c3ccccc3)c3ncccc23)cc1`: 118 to 120 °C. Next, `Nc1ccc(F)c(-n2cc(C(=O)O)c(=O)c3cc(F)c(F)c(Cl)c32)n1`: 228 to 230 °C. Take `CCc1nc2c(C)cc(C)nc2n1Cc1ccc(C(CC(=O)NS(=O)(=O)c2ccccc2)c2ccccc2)cc1` (centres undefined): the melting point lay in the range of 81 to 86 °C.

Regarding `CCN(c1cccc(-c2ccnc3c([N+](=O)[O-])cnn23)c1)S(=O)(=O)c1ccccc1`, the melting point was in the range of 189 to 191 °C. `COC(=O)CCCc1n[nH]c(=O)c2cc(OC)ccc12` displayed a melting point of 175 to 177 °C.

`Cc1ccc([N+](=O)[O-])cc1Nc1nccc(-c2cncnc2)n1` had a melting point of 200 to 203 °C. In the case of `CC(=O)C(CCC#N)(CCC#N)C(C)=O` it was 185 to 186 °C; in that of `O=C(O)C1CCc2c(c3ccccc3n2C(=O)C2CCCCC2)C1` (centres undefined), 157 to 159 °C. For `CCC(Oc1ccccc1Br)C(=O)OC1CC(O)C=C2C=CC(C)C(CCC3CC(O)CC(=O)O3)C21` (mixture of isomers), the melting point lay within 160 to 162 °C. In the case of `NC(=O)CCC1CCC(=O)N1` (centres undefined), the melting point amounted to 178 °C. Next, `COc1cc(OCCOCc2ccccc2)cc2nc(-c3ccncc3)[nH]c(=O)c12`: 228 to 230 °C; `COc1cc(F)ccc1CCN1c2nc(-c3ccncc3)cc(=O)n2CCC1(C)C`: 217 to 219 °C. Next, `COc1ccc(C(=O)Nc2cccc(C(C)(C)CNC(C)=O)c2)cc1OC`: 132 to 134 °C; `COCCOC(=O)c1cnn2c(-c3cccc(C(F)(F)F)c3)ccnc12`: 111 to 112 °C.

`CCc1c(N)c(C(N)=O)nn1C[C@H]1CCCN1C`: the melting point was in the range of 130 to 133 °C.

As for `CCCCc1nc2ccc(O)cc2c(=O)n1Cc1ccc(-c2ccccc2-c2nnn[nH]2)cc1`, the melting point was in the range of 212 to 214 °C.
